Test results published in article PMC6973020, “Quinoline‐Conjugated Ruthenacarboranes: Toward Hybrid Drugs with a Dual Mode of Action” (Chemmedchem, 2019).

Key:
[1] = system: Human fibroblast cell line MRC‐5; experiment: MTT cell viability assay, MRC‐5; type: cell-based; conditions: 72 h
Source text: Thus, care must be taken when comparing their biological activities with those of our previous studies, even with the same cell line, because the covalent vs. non‐covalent combination of drugs might imply different mechanisms of action in the cell.44 Here, we studied the in vitro activity of ruthenacarborane 3, i. e. free acid, and its 8‐hydroxyquinolyl (4) and 4‐{(7‐chloroquinolin‐4‐yl)oxy}butanol‐1‐yl (5) esters, against a panel of cancer cell lines (B16 mouse melanoma, A375 human skin melanoma, MCF‐7 human breast adenocarcinoma, LN229 human glioblastoma, U251 human glioma). Human fibroblast cell line MRC‐5, murine microglial cell line BV‐2 as well as peritoneal exudate cells (Mph), were chosen as models for non‐malignant cells. […] On the other side, we wanted to assess the reproducibility of the viability data, under either controlled (with BSA) or uncontrolled (without BSA) conditions, in two sets of independent assays. […] Cells were exposed to 3–5 for 72 h, after which cell viability was determined via 3‐(4,5‐dimethylthiazol‐2‐yl)‐2,5‐diphenyltetrazolium bromide (MTT) and crystal violet (CV) assays, in parallel (Table 2). Cisplatin was also tested as reference.
Preparation of drug solutions. […] Stock solution of cisplatin was prepared in DMF (10 mM) immediately before use. A stock solution of BSA in PBS was prepared at 1.28 mM concentration, and stored at 4 °C in the dark. […] Alternatively, 3 or 4 (DMSO stock solution) were added to the BSA solution in PBS, always with a 10 : 1 molar ratio of BSA to ruthenacarborane. […]
Colorimetric assays for cellular viability. […] The absorbance was measured with an automated microplate reader at λmax 540 nm, with the reference λmax 670 nm. Untreated cells or cells treated only with BSA (control) were also measured, as reference for BSA‐free and BSA‐containing drug formulations, respectively. […] Cell viability is expressed as percentage (%) relative to control (untreated cultures).58 Experiments were run in three independent replicates. […]

[2] = system: MCF‐7 cells; experiment: ApoStat staining (caspase activation), MCF‐7; type: cell-based, human; conditions: MCF‐7, 20 μM, 72 h
Method: Flow cytometry. For gaining better insights into the mechanisms of action of the ruthenium complexes, MCF‐7 and LN229 cells incubated with an IC50 dose of 3 or 4, were analyzed via flow cytometry. Several staining protocols were carried out in parallel, in independent experiments: i) AnnV/PI for the detection of apoptotic cell death, ii) AO for the detection of acidic vacuoles, iii) ApoStat for checking caspase activation, iv) CFSE for detecting interference with cellular proliferation, and v) DAPI for the detection of morphological signs of apoptosis. Untreated cells or cells treated only with BSA (control) were also measured, as reference for BSA‐free and BSA‐containing drug formulations, respectively. […] Channels FL1 (green emission), FL2 (orange emission) and/or FL3 (dark red emission) were used for fluorescence detection, according to the specific staining agent. Sideward Scatter (SSC) for MCF‐7 cells treated with 4 or BSA−4 was also analyzed, with respect to the control, for detection of shifts of cell granularity. […]
Staining Protocols for Flow Cytometric Analysis. […] Finally, cells were washed in PBS, resuspended in PBS (or AnnV‐binding buffer for AnnV/PI), and analysed. […] Cells were then washed, trypsinised, dissolved in PBS and analysed by CyFlow® Space Partec using the PartecFloMax® software (Partec GmbH, Münster, Germany). […]

[3] = system: LN229 cells; experiment: Wound healing assay, LN229; type: cell-based, human; conditions: LN229, IC50 dose, 72 h
[4] = Solubility in organic solvents (qualitative); type: physicochemical

Substance | IC50 [1] [µM] | caspase activation (ApoStat) [2] | cell motility (wound healing assay, in words) [3] | solubility in organic solvents (in words) [4]
closo‐ [Compound 3, closo‐ [3‐(η^6‐p‐Cymene)‐1‐(CH2COOH)‐3,1,2‐RuC2B9H10]] | 44.2 ± 1.6 | induce caspase activation | inhibited motility | soluble in acetone, THF, acetonitrile and DMSO, moderately soluble in chloroform and dichloromethane
closo ‐[3‐(η^6‐p‐Cymene)‐1‐(quinolin‐8‐yl‐acetate)‐3,1,2‐RuC2B9H10] [Compound 4] | 3.9 ± 0.1 | caspase‐independent apoptosis | inhibited motility | soluble in dichloromethane, chloroform, acetone and DMSO
